The results in this text go back to publication PMC5327470, “Discovery and Optimization of Novel 5-Indolyl-7-arylimidazo[1,2-a]pyridine-8-carbonitrile Derivatives as Potent Antitubulin Agents Targeting Colchicine-binding Site” (Scientific Reports, 2017).

Entries after “also recorded” stand apart in the source; their conditions may differ.

In data set [1] the test system is HT-29 (human colon cancer). Kind of data set: MTT antiproliferative assay, HT-29. The data set is classed as cell-based. The conditions noted are these: Homo sapiens, HT-29; MTT, 72 h, mean ± SD; read-out: IC50 (μM) ±SD HT29. The protocol: (§1) To evaluate the antiproliferative activity, all synthesized derivatives (5a–5v and 7a–7h) were investigated for their activity in vitro against a panel of cancer cell lines including HT-29 (human colon cancer), H460 (human lung cancer), A549 (human lung carcinoma), MKN-45 (human gastric cancer) and SMMC-7721 (human liver cancer) by MTT assay. CA-4 and Crolibulin were served as positive control, and the results expressed as half-maximal inhibitory concentration (IC50). IC50 values are the concentrations that cause 50% inhibition of cancer cell growth (μM). Data represent the mean values ± standard deviation (SD) of independent experiments performed in triplicate.
(§2) Cell lines and culture conditions.The human colon carcinoma cell line HT-29, the human pulmonary carcinoma cell line A549, the human gastric carcinoma cell line MKN-45, the human breast cancer cell line MDA-MB-231 and human heptocarcinoma cellline SMMC-7721were cultured in RPMI-1640 mediumcontaining 10% FBS, 100 U/mL streptomycin and 100 U/mL penicillinat 37 °C in humidified atmosphere with 5% CO2. All of the cells were purchased from the American Type Culture Collection (ATCC, Manassas, VA).
(§3) The antiproliferative activities in vitro of Crolibulin and all the target compounds were determined by an MTT assay. Briefly, cells were seeded into 96-well plates at a density of 1–3 × 10^4/well (depends on the cell growth rate). 24 h later, triplicate wells were treated with media and the agents. After 72 h ofincubation at 37 °C in 5% CO2, the drug containing medium wasremoved and replaced by […] of fresh medium with 5 mg/mLMTT solution. After 4 h of incubation, the medium with MTT was removed, and […] of DMSO was added to each well. The plates were gently agitated until the purple formazan crystals were dissolved, and the OD490 was determinedusing a microplate reader (MK3, Thermo, Germany). The data were calculated and plotted as the percent viability compared to the control. The 50% inhibitory concentration (IC50) was defined as theconcentration that reduced the absorbance of the untreated wells by 50% of the vehicle in the MTT assay.

Data set [2] concerns H460 (human lung cancer). In words: MTT antiproliferative assay, H460. The data set is classed as cell-based. The note with it: Homo sapiens, NCI-H460, 72 h, MTT, 72 h, mean ± SD. The protocol: as §1, §3
A general note: Tetrazolium dyes change colour on reduction, which living cells bring about.

Data set [3] deals with A549 (human lung carcinoma). Kind of data set: MTT antiproliferative assay, A549. The data set is classed as cell-based. The conditions noted are these: 72 h, mean ± SD. The protocol:
as §1, §2, §3

Data set [4] has as its system MKN-45 (human gastric cancer). Kind of data set: MTT antiproliferative assay, MKN-45. The note with it: 72 h, mean ± SD, read-out: IC50 (μM) ±SD MKN45. The data set is classed as cell-based. On the procedure: as §1, §2, §3
Data set [5] concerns human fetal hepatocyte line L02. Kind of data set: MTT assay on normal cell line L02. Type of data set: cell-based. The note with it: non-cancer cell line. The protocol: The drug candidate potency depends not only on its cytotoxicity in malignant cells, but also on its relative lack of toxicity toward normal cells.
as §3

Data set [6] has as its system HT-29 cells. In words: Cell cycle phase distribution by flow cytometry. The note with it: 24 h. Type of data set: cell-based, human. The protocol:
The structural similarities between the target compounds (5a–5v and 7a–7h) with CA-4 and Crolibulin, as well as the promising cytotoxic activity led us to hypothesize that these compounds exert their antiproliferative properties through inhibition of tubulin dynamics, thus inducing mitotic arrest in cancer cells. […] Controls were treated with drug vehicle DMSO. […] And this effect is characteristic of antimitotic agents disrupting microtubule assembly.
Data are expressed as the mean ± SEM.
For flow cytometric analysis of DNA content, cells inexponential growth were treated with compound for 24 h[41]. The cells treated with compoundwere collected, washed twice with PBS, and then fixed with 75% alcohol overnight. Then, the cells were washed with PBS and resuspended in 100 μL of PBS, 200 mg/mL RNase wasadded for 30 min to eliminate the interference of RNA, and 20 mL/L propidium iodide (PI; Sigma) was added for 30 min.Then, the cells were washed, and the DNA content wasdetected by flow cytometer (BD Accuri C6).

The subject of data set [7] is microtubules in HT-29 cells. Kind of data set: Immunofluorescence staining of microtubule network. Type of data set: cell-based, human. The conditions noted are these: HT-29, 32.5 nM, 12 h, anti-α-tubulin immunostaining. On the procedure: After incubation, cells were fixed, reacted with monoclonal anti-tubulin antibody at 4 °C overnight and then reacted with fluorescein isothiocyanate (FITC) conjugated secondary antibody, DAPI was used for nuclear counter-staining, the cellular microtubules were observed under fluorescence microscope (scale bar = 20 μm).
The HT-29 cells were seeded at 1 × 10^4 per well on a 24 wellplate and grown for 24 h. […] Cells in the control group were treated with culture medium. The control and treated cells were fixed with 4% formaldehydein PBS for 30 min at −20 °C, then washed twice with PBS and permeabilized with 0.1% (v/v) Triton X-100 in PBS for 5 min. Then, the cells were blocked with 3% bovine serum albumin(BSA) in PBS for 30 min. The primary α-tubulin antibody wasdiluted (1:100) with 2% BSA in PBS and incubated overnight at 4 °C. The cells were washed with PBS to remove unbound primaryantibody and then cells were incubated with FITC-conjugated antimousesecondary antibody, diluted (1:100) with 2% BSA in PBS, for 2 h at 37 °C. The cells were washed with PBS to remove unbound secondary antibody, nucleus was stained with 4,6-diamino-2-phenolindoldihydrochloride (DAPI) and then, immunofluorescencewas detected using a fluorescence microscope (Olympus,Tokyo, Japan).

In data set [8] the test system is tubulin, colchicine site. In words: Colchicine competition (competitive tubulin-binding) assay. The conditions noted are these: 0, 1.6, 5 and 15 μM, 1 h at 37 °C, then 5 μM colchicine. On the procedure: Figure 6 Colchicine competition assay. […] The fluorescence was measured by Hitachi F-2500 spectrofluorometer.
Then colchicine was added to a final concentration of 5 μM[43]. Fluorescence was determined using a Hitachi F-2500 spectrofluorometer (Tokyo, Japan) at excitation wavelengths of 365 nm and emission wavelengths of 435 nm. Blank values (buffer alone) as background were subtracted from all samples. […] Taxol, not binding in the colchicine-site of tubulin, was added as a negative control.

On to `N#Cc1c(-c2ccc(F)cc2Cl)cc(-c2c[nH]c3ccccc23)n2ccnc12` [5k, 7-(2-chloro-4-fluorophenyl)-5-(1H-indol-3-yl)imidazo[1,2-a]pyridine-8-carbonitrile], for which the melting point – broadly, the temperature, or range, at which the solid turns liquid – is 307.9 to 317.3 °C. Further, the IC50 (in general, the concentration needed to halve the response being measured) in data set [1] worked out at 0.02 ± 0.001 µM. This compound showed a concentration for half-maximal inhibition (IC50) in data set [2] of 0.05 ± 0.008 µM. In [3], this compound yielded an IC50 of 0.57 ± 0.08 µM. Besides, the IC50 in data set [4] is 0.14 ± 0.03 µM. The “effect on normal cell L02” value in [5] is given as “negligible effects; also recorded: minimal”. Moreover, the “percent of cells in G1 phase” value in data set [6] (HT-29, 20 nM) is reported as 62.84%. Further, in [6] (HT-29, 200 nM), the “percent of cells in G1 phase” value worked out at 65.76% and the “percent of cells in G2 (G2/M) phase” value worked out at 14.21%. Moreover, in data set [6] (HT-29, 1000 nM), the “percent of cells in G1 phase” value is on record as 24.62% and the “percent of cells in G2 (G2/M) phase” value is 64.07%. The “effect on microtubule network” value in [7] is “cellular microtubule depolymerization”. For the same compound, in data set [8], the “effect on intrinsic fluorescence of colchicine-tubulin complex” value is recorded as “decreased the intrinsic colchicine fluorescence in a dose-dependent manner”.

In the case of `CC(=O)O[C@H]1C(=O)[C@@]2(C)[C@H]([C@H](OC(=O)c3ccccc3)[C@]3(O)C[C@H](OC(=O)[C@H](O)[C@@H](NC(=O)c4ccccc4)c4ccccc4)C(C)=C1C3(C)C)[C@]1(OC(C)=O)CO[C@@H]1C[C@@H]2O` [Taxol, reference compound], the “effect on intrinsic fluorescence of colchicine-tubulin complex” value in data set [8] is on record as “scarcely effect”.
